The conditions of data set [1]: after IP or oral administration; cited from earlier work.
In data set [2] the test system is glucose transporter 1 (GLUT-1). Conditions: Jeong et al. 2011; cited from earlier work.
For data set [3] the following is noted: clinical trials (U.S. Pat. No. 3,995,061); cited from earlier work.
Data set [4] deals with vascular endothelial growth factor (VEGF). Conditions: Jeong et al. 2011; cited from earlier work.
Data set [5] deals with hnRNP L. Description: Western Blot analysis of hnRNP L in cultured rat primary cortical neurons. In kind it is cell-based. An excerpt:
Compounds that modify hnRNP L levels are useful for the development of ASD/mental retardation/neurological disorders.
(A western blot detects proteins with antibodies after separation by electrophoresis.)

Data set [6] concerns hnRNP L. Conditions: cited from earlier work.
Another data set deals with BIN1. Conditions: human osteosarcoma cells (U2OS), proteome analysis; cited from earlier work.
The mark [7] stands for this setting: human osteosarcoma cells (U2OS), proteome analysis.

With `CCOc1c(Cl)c(C)c(C=O)c(O)c1C/C=C(C)/C=C/C1(C)C(C)CCC(=O)C1C` (stereo not shown) [4-O-ethyl-ascochlorin, 4-O-ethylascochlorin], the “toxicity as assessed by LD50” value in data set [1] is recorded as “low toxicity”.
As for `COc1c(Cl)c(C)c(C=O)c(O)c1C/C=C(C)/C=C/[C@@]1(C)[C@H](C)CCC(=O)[C@@H]1C` [MAC, 4-O-methylascochlorin], the “expression of GLUT-1” value in data set [2] is reported as “increases the expression”. For the same molecule, the “tolerability in clinical trials” value in data set [3] is listed as “well tolerated”. For the same molecule, in data set [1], the “toxicity as assessed by LD50” value is “low toxicity”. In addition, in data set [4], the “expression of VEGF” value is on record as “increases the expression”.
`CC(/C=C/[C@@]1(C)[C@H](C)CCC(=O)[C@@H]1C)=C\Cc1c(O)c(Cl)c(C)c(C=O)c1O` [ascochlorin]: the “levels of hnRNP L” value in the data set with hnRNP L [5] is listed as “increased levels of hnRNP L”. In the data set on hnRNP L [6] (setting [7]), the “increase in hnRNP L levels” value is reported as 12 x; the “increase in the levels of three proteins, including hnRNP L and BIN1” value is given as at least 10 fold. Also, the “hnRNP L protein levels in vitro” value with hnRNP L [6] (in vitro (Kang et al. 2006)) is reported as “increase hnRNP L protein levels”. Besides, the “increase in BIN1 levels” value in the data set on BIN1 is listed as 10 x.
